# Source: US11014911B2, “CDK2 inhibitors” (Pfizer Inc., priority 2019, dated 2021)
# Legend:
# [1] = target: CDK2/Cyclin E1 full length (Homo sapiens (Human), UniProt P24941); assay: CDK2/Cyclin E1 full length mobility shift assay; assay type: biochemical
# GSK3β (H350L) = GSK3β (H350L) (Homo sapiens (Human), UniProt P49841); conditions: read-out: GSK3β Ki
# Chain of GSK3β (H350L) (P49841 whole entry, stated change not applied): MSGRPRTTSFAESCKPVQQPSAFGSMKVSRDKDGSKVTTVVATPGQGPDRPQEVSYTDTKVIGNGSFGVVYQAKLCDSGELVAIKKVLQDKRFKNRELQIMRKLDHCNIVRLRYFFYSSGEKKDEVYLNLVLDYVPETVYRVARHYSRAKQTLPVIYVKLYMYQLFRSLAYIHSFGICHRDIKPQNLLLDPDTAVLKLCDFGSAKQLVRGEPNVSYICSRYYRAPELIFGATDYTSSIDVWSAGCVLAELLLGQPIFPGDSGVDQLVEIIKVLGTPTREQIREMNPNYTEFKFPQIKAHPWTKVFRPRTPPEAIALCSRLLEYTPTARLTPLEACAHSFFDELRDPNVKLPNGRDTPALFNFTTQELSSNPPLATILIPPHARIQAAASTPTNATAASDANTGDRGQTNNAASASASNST
# Experimental: The assay was initiated with the addition of ATP, following 15 minutes pre-incubation of enzyme and inhibitor at room temperature in the reaction mixture. The reaction was stopped after 30 minutes at room temperature by the addition of 50 μL of 80 mM EDTA.
Compound,Ki [1] [nM],Ki (GSK3β (H350L)) [nM]
"CC[C@H](C)NC(=O)O[C@@H]1CC[C@H](c2cc(NC(=O)Cc3cnn(C)n3)n[nH]2)C1 [Example 330, (1R,3S)-3-(3-{[(2-methyl-2H-1,2,3-triazol-4-yl)acetyl]amino}-1H-pyrazol-5-yl)cyclopentyl (2S)-butan-2-ylcarbamate]",0.55,86
CC[C@H](C)NC(=O)O[C@@H]1CC[C@H](c2cc(NC(=O)c3cc(OC)nn3C)n[nH]2)C1 [Example 41],0.2,343
"COc1cccc(CC(=O)Nc2cc([C@H]3CC[C@@H](OC(=O)NC4(C)CC4)C3)[nH]n2)n1 [Example 434, (1R,3S)-3-(3-{[(6-methoxypyridin-2-yl)acetyl]amino}-1H-pyrazol-5-yl)cyclopentyl (1-methylcyclopropyl)carbamate]",0.48,39.8
CC[C@H](C)NC(=O)O[C@@H]1CC[C@H](c2cc(NC(=O)Cc3cnc4ncnn4c3)n[nH]2)C1 [Example 39],0.14,23.9
"Cc1ccc(CC(=O)Nc2cc([C@H]3CC[C@@H](OC(=O)NCC(F)F)C3)[nH]n2)cn1 [Example 247, (1R,3S)-3-(3-{[(6-methylpyridin-3-yl)acetyl]amino}-1H-pyrazol-5-yl)cyclopentyl (2,2-difluoroethyl)carbamate]",1.36,12.2
CC[C@H](C)NC(=O)O[C@@H]1CC[C@H](c2cc(NC(=O)Cc3cc(C)no3)n[nH]2)C1 [Example 32],0.36,35.7
CCCNC(=O)O[C@H]1CC[C@@H](c2cc(NC(=O)Cc3cnc(C)s3)n[nH]2)C1 [Example 22],0.23,> 191
"CC[C@H](C)NC(=O)O[C@@H]1CC[C@H](c2cc(NC(=O)Cc3ncc(OC)s3)n[nH]2)C1 [Example 353, (1R,3S)-3-(3-{[(5-methoxy-1,3-thiazol-2-yl)acetyl]amino}-1H-pyrazol-5-yl)cyclopentyl (2S)-butan-2-ylcarbamate]",0.5,29.5
CC1(NC(=O)O[C@@H]2CC[C@H](c3cc(NC(=O)Cc4cc(Cl)ccn4)n[nH]3)C2)CC1 [Example 129],0.2,31.6
CC[C@H](C)NC(=O)O[C@H]1CC[C@@H](c2cc(NC(=O)c3cnnn3C)n[nH]2)C1 [Example 31],0.16,45.1
"COc1cc(CC(=O)Nc2cc([C@H]3CC[C@@H](OC(=O)NC(C)C)C3)[nH]n2)ccn1 [Example 276, (1R,3S)-3-(3-{[(2-methoxypyridin-4-yl)acetyl]amino}-1H-pyrazol-5-yl)cyclopentyl propan-2-ylcarbamate]",0.64,33.1
COCc1cc(C(=O)Nc2cc([C@H]3CC[C@@H](OC(=O)N[C@@H](C)C4CC4)C3)[nH]n2)n(C)n1 [Example 104],0.17,> 47.6
"CC[C@H](C)NC(=O)O[C@@H]1CC[C@H](c2cc(NC(=O)Cc3cnccn3)n[nH]2)C1 [Example 325, (1R,3S)-3-{3-[(pyrazin-2-ylacetyl)amino]-1H-pyrazol-5-yl}cyclopentyl (2S)-butan-2-ylcarbamate]",0.81,54
"Cn1cc(CC(=O)Nc2cc([C@H]3CC[C@@H](OC(=O)NCCC(F)(F)F)C3)[nH]n2)cn1 [Example 216, (1R,3S)-3-(3-{[(1-methyl-1H-pyrazol-4-yl)acetyl]amino}-1H-pyrazol-5-yl)cyclopentyl (3,3,3-trifluoropropyl)carbamate]",0.86,28.2
CCCNC(=O)O[C@H]1CC[C@@H](c2cc(NC(=O)Cc3cncs3)n[nH]2)C1 [Example 20],0.21,27.9
"CC[C@H](C)NC(=O)O[C@@H]1CC[C@H](c2cc(NC(=O)Cc3cc(C)ccc3S(C)(=O)=O)n[nH]2)C1 [Example 371, (1R,3S)-3-[3-({[5-methyl-2-(methylsulfonyl)phenyl]acetyl}amino)-1H-pyrazol-5-yl]cyclopentyl (2S)-butan-2-ylcarbamate]",0.32,161

# Other lines, results leading:
Ki [1] [nM],Ki (GSK3β (H350L)) [nM],Compound
0.72,44.7,"CCCNC(=O)O[C@@H]1CC[C@H](c2cc(NC(=O)c3ccnn3C)n[nH]2)C1 [Example 164, (1R,3S)-3-(3-{[(1-methyl-1H-pyrazol-5-yl)carbonyl]amino}-1H-pyrazol-5-yl)cyclopentyl propylcarbamate]"
0.81,> 95.3,"CCCNC(=O)O[C@H]1CC[C@@H](c2cc(NC(=O)c3ccc(C)nc3C)n[nH]2)C1 [Example 180, (1S,3R)-3-(3-{[(2,6-dimethylpyridin-3-yl)carbonyl]amino}-1H-pyrazol-5-yl)cyclopentyl propylcarbamate]"
0.26,29.9,"Cc1cnc(CC(=O)Nc2cc([C@H]3CC[C@@H](OC(=O)NC(C)(C)C)C3)[nH]n2)cn1 [Example 299, (1R,3S)-3-(3-{[(5-methylpyrazin-2-yl)acetyl]amino}-1H-pyrazol-5-yl)cyclopentyl tert-butylcarbamate]"
4.59,23.9,"CCCNC(=O)O[C@@H]1CC[C@H](c2cc(NC(=O)Cc3ccc(OC)cn3)n[nH]2)C1 (stereo in doubt) [Example 187, (1R,3S)-3-(3-{[(5-methoxypyridin-2-yl)acetyl]amino}-1H-pyrazol-5-yl)cyclopentyl propylcarbamate]"
0.44,9.32,"CCCNC(=O)O[C@@H]1CC[C@H](c2cc(NC(=O)Cc3ccc(OC)nc3)n[nH]2)C1 [Example 188, (1R,3S)-3-(3-{[(6-methoxypyridin-3-yl)acetyl]amino}-1H-pyrazol-5-yl)cyclopentyl propylcarbamate]"
2.5,46.1,"CCCNC(=O)O[C@@H]1CC[C@H](c2cc(NC(=O)Cc3cnc(C)o3)n[nH]2)C1 [Example 176, (1R,3S)-3-(3-{[(2-methyl-1,3-oxazol-5-yl)acetyl]amino}-1H-pyrazol-5-yl)cyclopentyl propylcarbamate]"
0.58,94.9,"CC[C@H](C)NC(=O)O[C@@H]1CC[C@H](c2cc(NC(=O)Cc3cnn(C)c3C)n[nH]2)C1 [Example 337, (1R,3S)-3-(3-{[(1,5-dimethyl-1H-pyrazol-4-yl)acetyl]amino}-1H-pyrazol-5-yl)cyclopentyl (2S)-butan-2-ylcarbamate]"
0.85,> 95.3,"Cn1nncc1C(=O)Nc1cc([C@H]2CC[C@@H](OC(=O)NC(C)(C)C)C2)[nH]n1 [Example 293, (1R,3S)-3-(3-{[(1-methyl-1H-1,2,3-triazol-5-yl)carbonyl]amino}-1H-pyrazol-5-yl)cyclopentyl tert-butylcarbamate]"
1.62,39.9,"O=C(Cc1ccno1)Nc1cc([C@H]2CC[C@@H](OC(=O)NC3CCCC3)C2)[nH]n1 [Example 460, (1R,3S)-3-{3-[(1,2-oxazol-5-ylacetyl)amino]-1H-pyrazol-5-yl}cyclopentyl cyclopentylcarbamate]"
0.82,58.4,"CC[C@H](C)NC(=O)O[C@@H]1CC[C@H](c2cc(NC(=O)Cc3sc(C)nc3C)n[nH]2)C1 [Example 352, (1R,3S)-3-(3-{[(2,4-dimethyl-1,3-thiazol-5-yl)acetyl]amino}-1H-pyrazol-5-yl)cyclopentyl (2S)-butan-2-ylcarbamate]"
1.37,10.3,"Cc1cc(CC(=O)Nc2cc([C@H]3CC[C@@H](OC(=O)N4CCOC[C@@H]4C)C3)[nH]n2)on1 [Example 642, (1R,3S)-3-(3-{[(3-methyl-1,2-oxazol-5-yl)acetyl]amino}-1H-pyrazol-5-yl)cyclopentyl (3S)-3-methylmorpholine-4-carboxylate]"
0.39,7.32,"Cc1cnc(CC(=O)Nc2cc([C@H]3CC[C@@H](OC(=O)N4CCC4(C)C)C3)[nH]n2)cn1 [Example 601, (1R,3S)-3-(3-{[(5-methylpyrazin-2-yl)acetyl]amino}-1H-pyrazol-5-yl)cyclopentyl 2,2-dimethylazetidine-1-carboxylate]"
1.62,27.4,"COc1ccc(CC(=O)Nc2cc([C@H]3CC[C@@H](OC(=O)NCC(F)F)C3)[nH]n2)cc1 [Example 250, (1R,3S)-3-(3-{[(4-methoxyphenyl)acetyl]amino}-1H-pyrazol-5-yl)cyclopentyl (2,2-difluoroethyl)carbamate]"
0.86,39.9,"Cc1cnc(CC(=O)Nc2cc([C@@H]3CC[C@H](OC(=O)NC(C)C)C3)[nH]n2)o1 [Example 270, (1S,3R)-3-(3-{[(5-methyl-1,3-oxazol-2-yl)acetyl]amino}-1H-pyrazol-5-yl)cyclopentyl propan-2-ylcarbamate]"
0.38,56.1,"Cc1cc(CC(=O)Nc2cc([C@H]3CC[C@@H](OC(=O)NC(C)(C)C)C3)[nH]n2)no1 [Example 295, (1R,3S)-3-(3-{[(5-methyl-1,2-oxazol-3-yl)acetyl]amino}-1H-pyrazol-5-yl)cyclopentyl tert-butylcarbamate]"
0.45,8.01,"COc1cc(CC(=O)Nc2cc([C@H]3CC[C@@H](OC(=O)N4C[C@@H](O)[C@@H]4C)C3)[nH]n2)ccn1 [Example 612, (1R,3S)-3-(3-{[(2-methoxypyridin-4-yl)acetyl]amino}-1H-pyrazol-5-yl)cyclopentyl (2S,3R)-3-hydroxy-2-methylazetidine-1-carboxylate]"
2.63,40.9,"Cc1coc(CC(=O)Nc2cc([C@H]3CC[C@@H](OC(=O)NC(C)C)C3)[nH]n2)n1 [Example 272, (1R,3S)-3-(3-{[(4-methyl-1,3-oxazol-2-yl)acetyl]amino}-1H-pyrazol-5-yl)cyclopentyl propan-2-ylcarbamate]"
0.09,6.07,CC1(C)CCCN1C(=O)O[C@@H]1CC[C@H](c2cc(NC(=O)Cc3cnc4ncnn4c3)n[nH]2)C1 [Example 137]
0.41,18.6,"C[C@]1(O)CC[C@@H](NC(=O)O[C@H]2CC[C@@H](c3cc(NC(=O)Cc4ccccc4)n[nH]3)C2)CC1 [Example 558, (1S,3R)-3-{3-[(phenylacetyl)amino]-1H-pyrazol-5-yl}cyclopentyl (cis-4-hydroxy-4-methylcyclohexyl)carbamate]"
